According to patent US20240173334A1, “Oral (17-ß)-3-Oxoandrost-4-EN-17-YL Tridecanoate Therapy” (Lipocine Inc., priority 2018, published 2024):

Tests used:
[1] = ascending multiple-dose steady-state PK of undecanoate in dosage form B1 in hypogonadal males (Example 6); assay type: in vivo, human (adult hypogonadal male subjects)
Protocol: A single-center, randomized, double-blind, placebo-controlled, ascending multiple-dose, serial-group study was conducted to evaluate the safety, tolerability, and the steady-state PK parameters of an oral composition comprising substantially noncrystalline form of (17-ß)-3-oxoandrost-4-en-17-yl undecanoate in adult hypogonadal male subjects (N=84). The treatments were following as: • Treatment A: 75 mg of (17-ß)-3-oxoandrost-4-en-17-yl undecanoate as androst-4-en-17β-ol-3-one ester based on dosage form B1 in BID. • Treatment B: 150 mg of (17-ß)-3-oxoandrost-4-en-17-yl undecanoate as androst-4-en-17β-ol-3-one ester based on dosage form B1 in BID. • Treatment C: 225 mg of (17-ß)-3-oxoandrost-4-en-17-yl undecanoate as androst-4-en-17β-ol-3-one ester based on dosage form B1 in BID. • Treatment D: 300 mg of (17-ß)-3-oxoandrost-4-en-17-yl undecanoate as androst-4-en-17β-ol-3-one ester based on dosage form B1 in BID. • Treatment E: placebo capsules in BID
(§1) The steady state PK parameters were obtained post the treatment initiation.

[2] = multiple-dose steady-state PK of dosage form B7 in hypogonadal males (Example 5); assay type: in vivo, human (hypogonadal males)
Protocol: A multi-center, open-label, randomized, 4-treatment arm, multiple-dose study was performed to evaluate the safety, tolerability, and the steady-state PK parameters of the oral composition comprising substantially noncrystalline form of (17-ß)-3-oxoandrost-4-en-17-yl tridecanoate (dosage form B7) in hypogonadal males (N=48). The treatments were following as: • Treatment A: 500 mg of (17-ß)-3-oxoandrost-4-en-17-yl tridecanoate as androst-4-en-17β-ol-3-one ester in dosage form B7 in QD. • Treatment B: 750 mg of (17-ß)-3-oxoandrost-4-en-17-yl tridecanoate as androst-4-en-17β-ol-3-one ester in dosage form B7 in QD. • Treatment C: 1000 mg of (17-ß)-3-oxoandrost-4-en-17-yl tridecanoate as androst-4-en-17β-ol-3-one ester in dosage form B7 in QD. • Treatment D: 1250 mg of (17-ß)-3-oxoandrost-4-en-17-yl tridecanoate as androst-4-en-17β-ol-3-one ester in dosage form B7 in QD.
as §1
The evaluation of the relation between Cavg or Cmax and dose amount of (17-ß)-3-oxoandrost-4-en-17-yl tridecanoate was performed using the group mean values of Cavg and Cmax of androst-4-en-17β-ol-3-one obtained at the steady state.

[3] = 75 mg BID, dosage form B1, N=16
[4] = 150 mg BID, dosage form B1, N=16
[5] = 225 mg BID, dosage form B1, N=16
[6] = 300 mg BID, dosage form B1, N=9
[7] = 500 mg QD, dosage form B7, N=12
[8] = 750 mg QD, dosage form B7, N=11
[9] = 1000 mg QD, dosage form B7, N=12
[10] = 1250 mg QD, dosage form B7, N=12

Structure (SMILES) | Cavg of androst-4-en-17β-ol-3-one, mean (±SD) [1, 3] | Cmax of androst-4-en-17β-ol-3-one, mean (±SD) [1, 3] | Cavg of androst-4-en-17β-ol-3-one, mean (±SD) [1, 4] | Cmax of androst-4-en-17β-ol-3-one, mean (±SD) [1, 4] | Cavg of androst-4-en-17β-ol-3-one, mean (±SD) [1, 5] | Cmax of androst-4-en-17β-ol-3-one, mean (±SD) [1, 5] | Cavg of androst-4-en-17β-ol-3-one, mean (±SD) [1, 6] | Cmax of androst-4-en-17β-ol-3-one, mean (±SD) [1, 6] | Cavg of androst-4-en-17β-ol-3-one, mean (±SD) [2, 7] | Cmax of androst-4-en-17β-ol-3-one, mean (±SD) [2, 7] | Cavg of androst-4-en-17β-ol-3-one, mean (±SD) [2, 8] | Cmax of androst-4-en-17β-ol-3-one, mean (±SD) [2, 8] | Cavg of androst-4-en-17β-ol-3-one, mean (±SD) [2, 9] | Cmax of androst-4-en-17β-ol-3-one, mean (±SD) [2, 9] | Cavg of androst-4-en-17β-ol-3-one, mean (±SD) [2, 10] | Cmax of androst-4-en-17β-ol-3-one, mean (±SD) [2, 10]
CCCCCCCCCCC(=O)O[C@H]1CC[C@H]2[C@@H]3CCC4=CC(=O)CC[C@]4(C)[C@H]3CC[C@]12C [(17-ß)-3-oxoandrost-4-en-17-yl undecanoate] | 270 (94) ng/dL | 544 (169) ng/dL | 319 (77) ng/dL | 792 (276) ng/dL | 446 (161) ng/dL | 1169 (356) ng/dL | 582 (184) ng/dL | 1644 (644) ng/dL |  |  |  |  |  |  |  | 
CCCCCCCCCCCCC(=O)O[C@H]1CC[C@H]2[C@@H]3CCC4=CC(=O)CC[C@]4(C)[C@H]3CC[C@]12C [[(8R,9S,10R,13S,14S,17S)-10,13-dimethyl-3-oxo-1,2,6,7,8,9,11,12,14,15,16,17-dodecahydrocyclopenta[a]phenanthren-17-yl] tridecanoate] |  |  |  |  |  |  |  |  | 307 (157) ng/dL | 608 (318) ng/dL | 352 (41) ng/dL | 822 (254) ng/dL | 405 (148) ng/dL | 930 (326) ng/dL | 465 (201) ng/dL | 1233 (695) ng/dL
